Results taken from paper PMC2692856, “Emodin targets the β-hydroxyacyl-acyl carrier protein dehydratase from Helicobacter pylori: enzymatic inhibition assay with crystal structural and thermodynamic characterization” (BMC Microbiology, 2009).
In brackets after ≈: the same amount, converted by molar mass.

How the values were obtained:
H. pylori strains SS1 = system: H. pylori strains SS1; parameters: method as in PMID 18565285; conditions: cited from earlier work
[1] = system: H. pylori strains ATCC 43504; parameters: method as in PMID 18780820; conditions: cited from earlier work
HpFabZ [2] = molecular target: T1, HpFabZ (Helicobacter pylori, UniProt Q5G940); assay: ITC based assay of Emodin/HpFabZ binding; conditions: 25°C
Procedure: ITC experiments were performed on a VP-ITC Microcalorimeter (Microcal, Northampton, MA, USA) at 25°C. HpFabZ was dialysed extensively against 20 mM Tris (pH 8.0), 500 mM NaCl and 1 mM EDTA at 4°C. Appropriate concentration of Emodin was prepared from a 50 mM stock in DMSO, and corresponding amount of DMSO (25%) was added to the protein solution to match the buffer composition. The reference power was set to 15 μCal/sec and the cell contents were stirred continuously at 300 rpm throughout the titrations. After an initial injection of Emodin (3 μL, not used for data fitting), 29 injections (6 μL each) were performed with a 3 min-delay between each injection, and then the heat changes were monitored. Blank titrations of Emodin into buffer were also performed to correct for the heats generated by dilution and mixing. The binding isotherm was fit by the single binding site model using a non-linear least squares method based on Origin (Microcal Software, Northampton, MA, USA).
To inspect the kinetic and thermodynamic characters regarding the inhibition of Emodin against HpFabZ enzyme, ITC technology based assay was performed. […] The ITC titration data in Table 2 has clearly established a 1:1 stoichiometry for HpFabZ-Emodin complex formation. Based on the obtained thermodynamic data (ΔH = -17.77 ± 1.11 kcal/mol, TΔS = -9.12 kcal/mol, ΔG = -8.65 kcal/mol), it was easily concluded that the enthalpy contributed favorably to the binding free energy in Emodin/HpFabZ interaction, indicating a significant enthalpy driven binding of Emodin to HpFabZ.

HpFabZ [3] = molecular target: T1, HpFabZ; assay: HpFabZ enzymatic inhibition assay (spectrophotometric, substrate crotonoyl-CoA); assay type: biochemical
Procedure: The expression, purification and enzymatic inhibition assay of HpFabZ enzyme were performed according to the previously published approach with slight modification. The compounds dissolved in 1% DMSO (Dimethyl sulfoxide) were incubated with the enzyme for 2 hours before the assay started. The IC50 value of Emodin was estimated by fitting the inhibition data to a dose-dependent curve using a logistic derivative equation. The inhibition type of Emodin against HpFabZ was determined in the presence of varied inhibitor concentrations. After 2h-incubation, the reaction was started by the addition of crotonoyl-CoA. The Ki value was obtained from Lineweaver-Burk double-reciprocal plots and subsequent secondary plots.
The recombinant HpFabZ enzyme was prepared according to our previously published report. The spectrophotomeric enzyme inhibition assay approach was used for randomly screening HpFabZ inhibitor against our lab in-house natural product library. In addition, to optimize the screening efficiency and creditability, the pH profile of HpFabZ and the potential effects of DMSO on enzymatic activity were investigated [see Additional files 1, 2 and 3]. As shown in Additional file 2: Fig. S1, the pH optimum of HpFabZ was 8.0 and 1% DMSO for dissolving the tested compound had no obvious effect on the enzymatic activity (Additional file 3: Fig. S2.)

H. pylori strain SS1 = assay: Anti-H. pylori activity assay, MIC by standard agar dilution method; assay type: cell-based; conditions: Helicobacter pylori, SS1, 72 h, 3 days, 37°C, microaerobic
Procedure: (§1) The bacterial growth inhibition activity for Emodin was evaluated by using Paper Discus Method. DMSO and ampicillin paper were used as negative and positive control respectively. The minimum inhibitory concentrations (MIC) values were determined by the standard agar dilution method using Columbia agar supplemented with 10% sheep blood containing two-fold serial dilutions of Emodin. The plates were inoculated with a bacterial suspension (10^8 cfu/ml) in Brain Heart Infusion broth with a multipoint inoculator. Compound-free Columbia agar media were used as controls. Inoculated plates were incubated at 37°C under microaerobic conditions (85% N2, 10% CO2 and 5% O2) and examined after 3 days.
(§2) The inhibition activities of Emodin against H. pylori strains SS1 and ATCC 43504 were assayed according to the standard agar dilution method.

[4] = system: H. pylori strain ATCC 43504; assay: as above; assay type: cell-based; conditions: Helicobacter pylori, ATCC43504, 72 h, 3 days, 37°C, microaerobic
Procedure: as §1, §2

HpFabZ [5] = molecular target: T1, HpFabZ; assay: SPR (Biacore 3000) binding assay of Emodin to immobilized HpFabZ; conditions: 25°C
Procedure: The binding of Emodin to HpFabZ was analyzed by SPR technology based Biacore 3000 instrument (Biacore AB, Uppsala, Sweden). All the experiments were carried out using HBS-EP (10 mM HEPES pH 7.4, 150 mM NaCl, 3.4 mM EDTA and 0.005% surfactant P20) as running buffer with a constant flow rate of 30 μL/min at 25°C. HpFabZ protein, which was diluted in 10 mM sodium acetate buffer (pH 4.13) to a final concentration of 1.3 μM, was covalently immobilized on the hydrophilic carboxymethylated dextran matrix of the CM5 sensor chip (BIAcore) using standard primary amine coupling procedure. Emodin was dissolved in the running buffer with different concentrations ranging from 0.625 to 20 μM. All data were analyzed by BIAevaluation software, and the sensorgrams were processed by automatic correction for nonspecific bulk refractive index effects. The kinetic analyses of the Emodin/HpFabZ binding were performed based on the 1:1 Langmuir binding fit model according to the procedures described in the software manual.
SPR technology based Biacore 3000 instrument was used to investigate the kinetic feature of Emodin binding to HpFabZ.
The 1:1 Langmuir binding model was used to fit the kinetic parameters regarding the Emodin/HpFabZ binding process, in which the association rate constant (ka) and dissociation rate constant (kd) were fitted simultaneously by rate Equation 1,(1) [drawing 1]
Where, R represents the response unit, C is the concentration of the Emodin, Rmax stands for the maximal response. The equilibrium dissociation constant (KD) was determined by Equation 2.(2) [drawing 2]

T1 sequence (Q5G940 entry or part of it): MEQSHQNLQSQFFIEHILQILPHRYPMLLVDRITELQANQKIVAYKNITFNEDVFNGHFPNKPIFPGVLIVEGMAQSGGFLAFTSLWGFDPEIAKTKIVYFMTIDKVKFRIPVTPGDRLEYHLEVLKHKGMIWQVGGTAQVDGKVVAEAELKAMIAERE

## O=C1C=CC(=O)c2c(O)cccc21 [Juglone]
H. pylori strains SS1
  MIC, H. pylori strains SS1: 5 µg/mL (≈ 28.7 µM)

## O=c1c(O)c(-c2ccc(O)c(O)c2)oc2cc(O)cc(O)c12 [Quercetin]
[1]
  MIC, H. pylori strains ATCC 43504: 100 µg/mL (≈ 331 µM)

## Cc1cc(O)c2c(c1)C(=O)c1cc(O)cc(O)c1C2=O [Emodin, 3-methyl-1,6,8-trihydroxyanthraquinone]
HpFabZ [2]
  TΔS: -9.12 kcal/mol
  ΔG: -8.65 kcal/mol
  ΔH: -17.77 ± 1.11 kcal/mol
HpFabZ [2]; read-out: KD', equilibrium dissociation constant determined by ITC
  Kd: 0.45 µM
HpFabZ [2]; single binding site model
  N, stoichiometry of Emodin-HpFabZ complex: 1.07 ± 0.035
HpFabZ [3]; 2 h preincubation with enzyme, 1% DMSO
  IC50: 9.7 ± 1 µM
HpFabZ [3]; Lineweaver-Burk and secondary plots, substrate crotonoyl-CoA, read-out: Ki, HpFabZ enzyme inhibition
  Ki: 1.9 ± 0.3 µM
HpFabZ [3]; versus substrate crotonoyl-CoA, double reciprocal plots
  Inhibition type: Competitive
H. pylori strain SS1
  MIC: 5 µg/mL (≈ 18.5 µM)
[4]
  MIC: 10 µg/mL (≈ 37 µM)
HpFabZ [5]; 1:1 Langmuir fit
  Rmax, maximum analyte binding capacity: 42.3 ± 1.51 RU
  kd, dissociation rate constant: 0.193 ± 0.0061 per s
HpFabZ [5]; HpFabZ immobilized on CM5 chip, read-out: KD, equilibrium dissociation constant determined by SPR
  Kd: 4.59 µM

## O=c1cc(-c2ccc(O)cc2)oc2cc(O)cc(O)c12 [Apigenin]
[1]
  MIC, H. pylori strains ATCC 43504: 25 µg/mL (≈ 92.5 µM)

## COc1cc(O)c2c(c1)O[C@H](c1ccc(O)cc1)CC2=O [(S)-Sakuranetin]
[1]
  MIC, H. pylori strains ATCC 43504: 25 µg/mL (≈ 87.3 µM)
